Experimental data: patent publication US20120172228A1, “ALCOHOL ALKOXYLATES AS ADJUVANTS FOR AGROCHEMICAL FORMULATIONS” (SYNGENTA CROP PROTECTION, LLC, priority 2009, published 2012)

Assays:
Format in all cases: in vivo
[1] = tested on: lolium perenne (LOLPE), alopecurius myosuirides (ALOMY), setaria viridis (SETVI), avena fatua (AVEFA); assay: Adjuvant with herbicide pinoxaden, track sprayer, mean across four weed species; conditions: pinoxaden 7.5 or 15 g/ha, 14 and 21 days
[2] = tested on: setaria viridis (SETVI); assay: Adjuvant with herbicide pinoxaden on SETVI; conditions: pinoxaden 7.5 or 15 g/ha; butylene oxide adjuvants 0.2%, TEHP 0.5% v/v; 14 and 21 days
Method: (§1) In this example Sample 13 from Table 1 was compared to the oil adjuvant blend Turbocharge™. The herbicide fomesafen was applied to the weed species xanthium strumarium (XANST), setaria viridis (SETVI), abutilon theophrasti (ABUTH), and chenopodium album (CHEAL) at rates of 60 or 120 grams per hectare, using a laboratory track sprayer. Each experiment was replicated four times and the percentage damage to the weeds was assessed visually at time periods of 7, 14 and 21 days after application. Each adjuvant was applied at a rate of 0.5% of the volume of the spray water. Four effects were evaluated: pesticide rate (2 levels), adjuvant type (two levels), weed species (four levels) and days after application (three levels). […] The effect of each adjuvant was pulled out from the model and the least significant differences evaluated using a Student's t method. […]
(§2) In this example the responses of the adjuvants 13, 17, 19, 21, 22 and 23 were measured at an application rate of 0.2% of the volume of the spray solution used. […] In each case the experiments were replicated four times and the percentage damage to the weeds was assessed visually at time periods of 14 and 21 days after application.
In this example the response of butylene oxide sample 27 of Table 1 was measured at an application rate of 0.2% of the volume of the spray solution used. […]

[3] = tested on: lolium perenne (LOLPE), alopecurius myosuirides (ALOMY), avena fatua (AVEFA); assay: Adjuvant with herbicide pinoxaden, mean across three weed species (Example 22); conditions: pinoxaden 7.5, 11.25 or 15 g/ha; Sample 13 0.2%, TEHP 0.5%; 14 and 21 days
Method: In this example Sample 13 from Table 1 was compared to the oil adjuvant blend Turbocharge™. The herbicide fomesafen was applied to the weed species xanthium strumarium (XANST), setaria viridis (SETVI), abutilon theophrasti (ABUTH), and chenopodium album (CHEAL) at rates of 60 or 120 grams per hectare, using a laboratory track sprayer. Each experiment was replicated four times and the percentage damage to the weeds was assessed visually at time periods of 7, 14 and 21 days after application. Each adjuvant was applied at a rate of 0.5% of the volume of the spray water. Four effects were evaluated: pesticide rate (2 levels), adjuvant type (two levels), weed species (four levels) and days after application (three levels). A standard simple linear model was constructed to judge the significance of these effects. […] A model was fitted using multiple linear regression using the statistics package JMP (SAS group). The effect of each adjuvant was pulled out from the model and the least significant differences evaluated using a Student's t method. […]
as §2, with “response” for “responses”, “butylene oxide adjuvant 13 of Table 1 was” for “adjuvants 13, 17, 19, 21, 22 and 23 were”

[4] = tested on: abutilon theophrasti (ABUTH); assay: Adjuvant with herbicide nicosulfuron on ABUTH; conditions: nicosulfuron 30 or 60 g/ha; adjuvants 0.2% of spray water; 14 and 21 days after application
Method: as §1
In this example the butylene oxide adjuvant Sample 13 of Table 1 was compared to the commercial oil adjuvant blend Atplus™411F. […] Each experiment was replicated four times and the percentage damage to the weeds was assessed visually at time periods of 14 and 21 days after application. […]
In this example the responses of the butylene oxide adjuvants 13, 17, 19, 21, 22 and 23 of Table 1 were measured at an application rate of 0.2% of the volume of the spray solution used. […]

With CCCCC(CC)COP(=O)(OCC(CC)CCCC)OCC(CC)CCCC (centres unmarked) [TEHP, tris 2-ethylhexyl phosphate] the “Mean kill (%)” value ([1]; Sample 28 0.2%, TEHP 0.5%) was 92.6%, the “mean efficacy (percentage damage to the weeds), All weeds” value ([1]; butylene oxide adjuvants 0.2%, TEHP 0.5% v/v) was 75.63; A % and the “mean efficacy (percentage damage to the weeds), SETVI” value [2] was 77.5; ABC %. The “mean efficacy (percentage damage to the weeds), All weeds” value [3] was 59.91; A % and the “mean efficacy (percentage damage to the weeds), ABUTH” value [4] was 17.92; B %.
